Experimental data taken from PubChem BioAssay (NCI).
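A five-concentration, 48-hour dose response in 96-well plates underlies each endpoint, interpolated linearly between surrounding concentrations. At the TGI there is no net growth.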

Experiments:
Experiment in all cases: DTP human tumour cell line panel, 48 h
A498 renal = test system: A498 renal
CCRF-CEM leukemia = test system: CCRF-CEM leukemia
HOP-62 NSCLC = test system: HOP-62 NSCLC
IGROV1 ovarian = test system: IGROV1 ovarian
MDA-N = test system: MDA-N
PC-3 prostate = test system: PC-3 prostate
SK-MEL-28 melanoma = test system: SK-MEL-28 melanoma
SK-MEL-5 melanoma = test system: SK-MEL-5 melanoma
U251 CNS = test system: U251 CNS
UACC-62 melanoma = test system: UACC-62 melanoma

| SMILES | TGI (A498 renal) [µM] | TGI (CCRF-CEM leukemia) [µM] | TGI (HOP-62 NSCLC) [µM] | TGI (IGROV1 ovarian) [µM] | TGI (MDA-N) [µM] | TGI (PC-3 prostate) [µM] | TGI (SK-MEL-28 melanoma) [µM] | TGI (SK-MEL-5 melanoma) [µM] | TGI (U251 CNS) [µM] | TGI (UACC-62 melanoma) [µM] |
| --- | --- | --- | --- | --- | --- | --- | --- | --- | --- | --- |
| NNC(=O)c1ccccc1NC(=O)/C(=C/c1ccccc1)NC(=O)c1ccccc1 | > 100 | > 100 | > 100 | > 100 | > 100 | > 100 | > 100 | > 100 | > 100 | > 100 |
| O=C1NC(N2CCOCC2)=N/C1=C\c1ccccc1O | > 100 | > 100 | > 100 | > 100 | > 100 | > 100 | > 100 | > 100 | > 100 | – |
| O=S1(=O)c2ccccc2N2CCCc3cc(Cl)cc1c32 | > 100 | > 100 | > 100 | > 100 | > 100 | > 100 | > 100 | > 100 | – | > 100 |
| Cc1nc2c(Br)cc(Br)cc2c(=O)n1-c1ccccc1N | > 100 | > 100 | > 100 | > 100 | > 100 | > 100 | > 100 | 39 | – | > 100 |
| O=C(CCCC(=O)N1CC(CCl)c2ccc([N+](=O)[O-])cc21)N1CC(CCl)c2ccc([N+](=O)[O-])cc21 (stereo not drawn) | > 100 | > 100 | > 100 | – | > 100 | > 100 | > 100 | > 100 | > 100 | > 100 |
| O=C1CSC2(CCN(CCCN3c4ccccc4Sc4ccc(Cl)cc43)CC2)N1 | 31 | – | 25.5 | 20.8 | 23.6 | 16.9 | 28.9 | 23 | 20.6 | 23.7 |
| CC(NC(=O)c1ccc(OP(=O)(OCC2=CC(=O)c3ccccc3C2=O)N(C)CCCCCl)cc1)c1ccc(OCC2CCCCC2)c(C(N)=O)c1 (stereo not drawn) | – | 30.6 | 32.9 | 21.6 | 13 | 58.6 | 27.2 | 2.02 | 22.3 | 21.4 |
| CC(Nc1cc(Cl)cc(Cl)c1)c1ccncc1 (stereo not drawn) | 88.8 | 58 | 33.5 | 31.8 | 45.6 | 36.7 | 97.8 | 28.7 | 35.2 | – |
| C/C(=N/O)c1cccc(Nc2nc3ccccc3c3[nH]c4ccccc4c23)c1 | – | > 100 | 8.83 | 13.3 | 7.56 | 8.05 | 12.4 | 4.08 | 11.5 | 4.65 |
| Clc1ccc(OCc2nnc(CCCCCCCCc3nnc(COc4ccc(Cl)cc4Cl)o3)o2)c(Cl)c1 | > 100 | – | – | > 100 | > 100 | > 100 | > 100 | > 100 | > 100 | > 100 |
| C=C[C@H]1CN2CC[C@H]1C[C@@H]2[C@@H](O)c1ccnc2ccccc12 | > 100 | – | > 100 | 75.9 | > 100 | > 100 | > 100 | > 100 | > 100 | > 100 |
| C=C1CCCCCCCCCCC1S(=O)c1ccccc1 (stereo not drawn) | > 100 | – | > 100 | 33.4 | > 100 | > 100 | > 100 | > 100 | 53.2 | > 100 |
